Data reported in US20240109868A1, “EP300/CBP MODULATOR, PREPARATION METHOD THEREFOR AND USE THEREOF” (Miracure Biotechnology Limited, priority 2022, published 2024).

What was measured:
22Rv1 Cell = assay: 22RV1 cell growth inhibition, CellTiter-Glo, 72 h; type: cell-based; details: Homo sapiens, 22Rv1, 72 h, 22RV1 cells, 72 h culture
Procedure, shortened: (§1)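 Cells seeded at 5×10^3/well overnight in RPMI-1640/10% FBS, then exposed to compound (0.5% DMSO final) for 72 h at 37 °C.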

CBP bromodomain = target: T1, CBP bromodomain (Homo sapiens, UniProt Q92793); assay: CBP AlphaLISA assay kit (CBP bromodomain binding to acetylated histone substrate); details: read-out: CBP ALPHA IC50
T1 construct: purchased
T1 sequence (Q92793 1085-1192 limits assumed): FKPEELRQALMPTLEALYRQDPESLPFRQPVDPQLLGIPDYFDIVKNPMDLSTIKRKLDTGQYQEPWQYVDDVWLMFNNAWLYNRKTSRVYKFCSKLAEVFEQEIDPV
Description: The biochemical activity of the CBP inhibitors was determined using the CBP AlphaLISA® assay kit. The assay is based on the binding of the CBP bromodomain to the acetylated histone substrate. The compounds were incubated with CBP and the biotinylated substrate for 30 min. Then acceptor beads were added, followed by 15 min of incubation, and donor beads were added, followed by 15 min of incubation. Then the alpha counts were read, the data were analyzed using Prism 7.0, and the IC50 values were calculated. The values are shown as mean f SEM (N=2).

EP300 = target: T2, EP300 (Homo sapiens, UniProt Q09472); assay: Ep300 AlphaLISA assay kit; type: biochemical; details: read-out: EP300 ALPHA IC50
T2 construct: purchased
T2 sequence (Q09472 whole entry): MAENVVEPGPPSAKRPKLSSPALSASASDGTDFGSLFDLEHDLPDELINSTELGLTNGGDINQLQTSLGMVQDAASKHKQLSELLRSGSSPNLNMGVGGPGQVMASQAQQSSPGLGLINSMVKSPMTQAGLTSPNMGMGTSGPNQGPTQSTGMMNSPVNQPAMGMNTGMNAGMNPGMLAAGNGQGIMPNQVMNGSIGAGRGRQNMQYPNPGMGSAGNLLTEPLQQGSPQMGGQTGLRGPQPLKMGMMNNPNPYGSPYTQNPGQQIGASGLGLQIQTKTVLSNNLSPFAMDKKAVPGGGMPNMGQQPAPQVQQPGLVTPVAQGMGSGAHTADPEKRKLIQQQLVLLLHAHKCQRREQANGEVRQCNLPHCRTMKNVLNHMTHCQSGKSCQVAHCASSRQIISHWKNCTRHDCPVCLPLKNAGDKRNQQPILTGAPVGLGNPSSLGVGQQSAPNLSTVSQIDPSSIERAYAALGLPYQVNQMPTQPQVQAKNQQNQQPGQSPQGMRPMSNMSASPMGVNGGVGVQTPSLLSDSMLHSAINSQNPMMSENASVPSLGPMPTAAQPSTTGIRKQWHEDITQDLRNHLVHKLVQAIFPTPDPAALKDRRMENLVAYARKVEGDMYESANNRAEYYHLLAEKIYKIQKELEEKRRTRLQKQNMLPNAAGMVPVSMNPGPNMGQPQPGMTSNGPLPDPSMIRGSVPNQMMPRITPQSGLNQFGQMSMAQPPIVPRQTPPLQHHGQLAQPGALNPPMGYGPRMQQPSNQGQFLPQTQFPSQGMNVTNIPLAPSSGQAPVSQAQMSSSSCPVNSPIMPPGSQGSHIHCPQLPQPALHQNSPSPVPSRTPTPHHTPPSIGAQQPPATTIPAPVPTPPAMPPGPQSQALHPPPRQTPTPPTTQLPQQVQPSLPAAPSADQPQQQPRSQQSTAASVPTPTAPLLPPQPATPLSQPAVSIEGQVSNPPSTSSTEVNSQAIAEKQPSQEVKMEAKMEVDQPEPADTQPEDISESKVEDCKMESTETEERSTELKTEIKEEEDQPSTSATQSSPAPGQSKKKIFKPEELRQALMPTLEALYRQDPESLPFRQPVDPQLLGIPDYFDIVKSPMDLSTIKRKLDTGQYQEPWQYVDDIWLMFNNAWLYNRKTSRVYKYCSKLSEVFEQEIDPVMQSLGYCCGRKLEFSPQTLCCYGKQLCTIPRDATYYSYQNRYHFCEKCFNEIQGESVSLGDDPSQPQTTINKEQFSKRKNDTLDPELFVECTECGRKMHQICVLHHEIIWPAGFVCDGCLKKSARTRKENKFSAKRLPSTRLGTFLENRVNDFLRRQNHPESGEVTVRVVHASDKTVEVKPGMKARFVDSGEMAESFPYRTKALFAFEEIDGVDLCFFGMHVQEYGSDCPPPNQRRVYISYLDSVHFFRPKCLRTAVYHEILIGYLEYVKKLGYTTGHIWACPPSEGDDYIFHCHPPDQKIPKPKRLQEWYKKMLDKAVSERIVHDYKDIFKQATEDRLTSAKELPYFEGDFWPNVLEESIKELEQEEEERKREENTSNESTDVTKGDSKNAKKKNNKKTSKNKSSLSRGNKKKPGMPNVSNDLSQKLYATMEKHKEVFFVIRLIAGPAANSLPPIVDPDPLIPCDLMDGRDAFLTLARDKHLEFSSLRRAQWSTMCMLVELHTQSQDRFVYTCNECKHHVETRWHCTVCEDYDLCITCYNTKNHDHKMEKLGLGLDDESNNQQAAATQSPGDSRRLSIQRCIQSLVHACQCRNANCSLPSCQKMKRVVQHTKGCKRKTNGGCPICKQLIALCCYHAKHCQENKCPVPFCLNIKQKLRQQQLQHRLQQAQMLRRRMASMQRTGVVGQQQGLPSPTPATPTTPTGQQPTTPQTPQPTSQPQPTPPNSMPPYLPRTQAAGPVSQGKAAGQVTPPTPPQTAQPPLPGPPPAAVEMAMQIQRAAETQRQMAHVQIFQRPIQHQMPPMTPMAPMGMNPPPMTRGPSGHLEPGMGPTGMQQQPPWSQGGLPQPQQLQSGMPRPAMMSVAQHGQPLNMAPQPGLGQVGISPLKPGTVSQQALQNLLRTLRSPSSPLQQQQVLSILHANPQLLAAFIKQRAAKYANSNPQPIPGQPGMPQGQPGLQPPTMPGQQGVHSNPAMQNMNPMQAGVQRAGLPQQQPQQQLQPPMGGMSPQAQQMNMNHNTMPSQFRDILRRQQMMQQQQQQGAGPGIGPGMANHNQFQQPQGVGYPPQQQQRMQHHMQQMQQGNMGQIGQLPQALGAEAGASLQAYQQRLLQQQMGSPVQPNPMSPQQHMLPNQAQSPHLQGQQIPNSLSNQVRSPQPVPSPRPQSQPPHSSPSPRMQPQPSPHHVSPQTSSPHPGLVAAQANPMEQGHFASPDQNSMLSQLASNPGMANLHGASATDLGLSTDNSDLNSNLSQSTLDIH
Description: The biochemical activity of the EP300 modulators was determined using the Ep300 AlphaLISA® assay kit. The assay is based on the […] of residues in the peptide substrate by enzymatic transfer of acetyl groups from acetyl-CoA to particular lysine. The compounds were incubated with EP300 and then with an antibody combination of an antibody that specifically binds to an acetylated peptide and acceptor beads that bind to an acetylated peptide, followed by streptavidin-labeled donor beads. The alpha counts were read, the data were analyzed using Prism 7.0, and the IC50 values were calculated. The values are shown as mean f SEM (N=2).

vCap Cell = assay: vCap cell growth inhibition, CellTiter-Glo, 72 h; type: cell-based; details: Homo sapiens, VCaP, 72 h, vCap cells, 72 h culture
Procedure, shortened: as §1

CNC(=O)N1Cc2nc(Cl)nc(N3CCCc4cc(-c5cnn(C)c5)c(C(F)F)cc43)c2C1 [Compound M001242]
IC50 (22Rv1 Cell): > 1000 nM | IC50 (CBP bromodomain): > 10 nM | IC50 (EP300): > 10 nM | IC50 (vCap Cell): > 1000 nM

COC(=O)N1CCc2cccc(N3CCCc4cc(-c5cnn(C)c5)c(C(F)F)cc43)c2C1 [Compound M001202]
IC50 (22Rv1 Cell): > 1000 nM | IC50 (CBP bromodomain): < 10 nM | IC50 (EP300): < 10 nM | IC50 (vCap Cell): > 1000 nM

CNC(=O)N1CCc2c(c(N3CCCc4cc(-c5cnn(C)c5)c(C(F)F)cc43)nn2C2CCOCC2)C1 [GNE-781]
IC50 (22Rv1 Cell): > 1000 nM | IC50 (CBP bromodomain): < 10 nM | IC50 (EP300): < 10 nM | IC50 (vCap Cell): > 1000 nM

CNC(=O)N1CCc2nc(C3CCOCC3)nc(N3CCCc4cc(-c5cnn(C)c5)c(C(F)F)cc43)c2C1 [Compound M001245, 4-(7-(Difluoromethyl)-6-(1-methyl-1H-pyrazol-4-yl)-3,4-dihydroquinolin-1(2H)-yl)-N-methyl-2-(tetrahydro-2H-pyran-4-yl)-7,8-dihydropyrido[4,3-d]pyrimidine-6(5H)-carboxamide]
IC50 (22Rv1 Cell): > 1000 nM | IC50 (CBP bromodomain): < 10 nM | IC50 (EP300): < 10 nM | IC50 (vCap Cell): > 1000 nM

CC(=O)N1Cc2nc(C3CCOCC3)nc(N3CCCc4cc(-c5cnn(C)c5)c(C(F)F)cc43)c2C1 [Compound M001243]
IC50 (22Rv1 Cell): > 1000 nM | IC50 (CBP bromodomain): > 10 nM | IC50 (EP300): > 10 nM | IC50 (vCap Cell): > 1000 nM
